The source made the active and inactive calls. The rule behind the calls is not given here. Peptide text beside a SMILES is read from it.
Legend:
[1] = biological target: T1, E3 ubiquitin-protein ligase XIAP (Homo sapiens, UniProt P98170); experiment: Displacement of fluorescent H-Abu-Arg-Pro-Phe-Lys-NH-FAM-NH2 peptide from XIAP BIR3 domain by fluorescence polarization assay
[2] = biological target: T1, E3 ubiquitin-protein ligase XIAP; experiment: Inhibition of XIAP in HEK293 cell lysate assessed as release of caspase-9 from BIR3 measuring formation of fluorescent AFC from LEHD-AFC by fluorimetry; format: cell-free
[3] = biological target: T1, E3 ubiquitin-protein ligase XIAP; experiment: Inhibition of XIAP in HEK293 cell lysate assessed as release of caspase-3 from BIR3 measuring formation of fluorescent AFC from DEVD-AFC by fluorimetry; format: cell-free

T1 sequence (P98170 whole entry, the tested form may be a part): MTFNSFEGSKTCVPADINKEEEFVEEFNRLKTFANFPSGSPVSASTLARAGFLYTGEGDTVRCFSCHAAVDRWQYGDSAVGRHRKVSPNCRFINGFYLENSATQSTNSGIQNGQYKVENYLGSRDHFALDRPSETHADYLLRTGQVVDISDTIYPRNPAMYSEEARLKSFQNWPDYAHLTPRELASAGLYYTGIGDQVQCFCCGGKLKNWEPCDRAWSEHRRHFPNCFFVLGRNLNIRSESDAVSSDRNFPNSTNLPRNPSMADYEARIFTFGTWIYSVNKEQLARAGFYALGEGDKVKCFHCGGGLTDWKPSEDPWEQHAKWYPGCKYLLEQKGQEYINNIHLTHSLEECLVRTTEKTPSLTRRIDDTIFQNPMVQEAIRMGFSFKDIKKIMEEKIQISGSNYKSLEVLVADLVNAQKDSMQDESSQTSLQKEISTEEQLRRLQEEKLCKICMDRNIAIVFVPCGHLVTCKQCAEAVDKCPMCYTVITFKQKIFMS

IC50 [1] [nM] | inhibition [2] | inhibition [3] | Activity [1] | SMILES
560 | Dose-dependent effect | Dose-dependent effect |  | CC[C@H](C)[C@H](NC(=O)[C@@H]1CCCN1C(=O)[C@H](CS)NC(=O)[C@H](C)N)C(=O)NCCOCCOCC(=O)NCCN(CC(=O)NCCN(CC(=O)NCCN(CC(=O)NCCN(CC(=O)NCCN(CC(=O)NCCN(CC(=O)NCCN(CC(=O)NCC(N)=O)C(=O)Cn1cnc2c(=O)[nH]c(N)nc21)C(=O)Cn1cnc2c(N)ncnc21)C(=O)Cn1ccc(N)nc1=O)C(=O)Cn1cnc2c(N)ncnc21)C(=O)Cn1cc(C)c(=O)[nH]c1=O)C(=O)Cn1ccc(N)nc1=O)C(=O)Cn1ccc(N)nc1=O
650 |  |  |  | CC[C@H](C)[C@H](NC(=O)[C@@H]1CCCN1C(=O)[C@H](CS)NC(=O)[C@H](C)N)C(=O)O (H-ACPI-OH)
 |  |  | inactive | CC[C@H](C)[C@H](NC(=O)[C@@H]1CCCN1C(=O)[C@@H](N)CS)C(=O)NCCOCCOCC(=O)NCCN(CC(=O)NCCN(CC(=O)NCCN(CC(=O)NCCN(CC(=O)NCCN(CC(=O)NCCN(CC(=O)NCCN(CC(=O)NCC(N)=O)C(=O)Cn1cnc2c(=O)[nH]c(N)nc21)C(=O)Cn1cnc2c(N)ncnc21)C(=O)Cn1ccc(N)nc1=O)C(=O)Cn1cnc2c(N)ncnc21)C(=O)Cn1cc(C)c(=O)[nH]c1=O)C(=O)Cn1ccc(N)nc1=O)C(=O)Cn1ccc(N)nc1=O
1520 | Dose-dependent effect | Dose-dependent effect |  | CC[C@H](C)[C@H](NC(=O)[C@@H]1CCCN1C(=O)[C@H](CS)NC(=O)[C@H](C)N)C(=O)N[C@@H](C)C(=O)N[C@@H](CCC(N)=O)C(=O)N[C@@H](CCCCN)C(=O)NCCN(CC(=O)NCCN(CC(=O)NCCN(CC(=O)NCCN(CC(=O)NCCN(CC(=O)NCCN(CC(=O)NCCN(CC(=O)NCC(N)=O)C(=O)Cn1cnc2c(=O)[nH]c(N)nc21)C(=O)Cn1cnc2c(N)ncnc21)C(=O)Cn1ccc(N)nc1=O)C(=O)Cn1cnc2c(N)ncnc21)C(=O)Cn1cc(C)c(=O)[nH]c1=O)C(=O)Cn1ccc(N)nc1=O)C(=O)Cn1ccc(N)nc1=O
 |  |  | inactive | CC[C@H](C)[C@H](NC(=O)[C@@H]1CCCN1C(=O)[C@@H](N)CS)C(=O)N[C@@H](C)C(=O)N[C@@H](CCC(N)=O)C(=O)N[C@@H](CCCCN)C(=O)NCCN(CC(=O)NCCN(CC(=O)NCCN(CC(=O)NCCN(CC(=O)NCCN(CC(=O)NCCN(CC(=O)NCCN(CC(=O)NCC(N)=O)C(=O)Cn1cnc2c(=O)[nH]c(N)nc21)C(=O)Cn1cnc2c(N)ncnc21)C(=O)Cn1ccc(N)nc1=O)C(=O)Cn1cnc2c(N)ncnc21)C(=O)Cn1cc(C)c(=O)[nH]c1=O)C(=O)Cn1ccc(N)nc1=O)C(=O)Cn1ccc(N)nc1=O
 |  |  | inactive | CC(=O)NCCN(CC(=O)NCCN(CC(=O)NCCN(CC(=O)NCCN(CC(=O)NCCN(CC(=O)NCCN(CC(=O)NCCN(CC(=O)NCCN(CC(=O)N[C@@H](CCCCNC(=O)CCSC(=O)[C@H](C)N)C(N)=O)C(=O)Cn1ccc(N)nc1=O)C(=O)Cn1cnc2c(N)ncnc21)C(=O)Cn1ccc(N)nc1=O)C(=O)Cn1ccc(N)nc1=O)C(=O)Cn1ccc(N)nc1=O)C(=O)Cn1ccc(N)nc1=O)C(=O)Cn1cc(C)c(=O)[nH]c1=O)C(=O)Cn1cc(C)c(=O)[nH]c1=O

Reference: ChEMBL document CHEMBL1938340, “DNA-instructed acyl transfer reactions for the synthesis of bioactive peptides” (Bioorg Med Chem Lett, 2011)
